Measurements published in patent US20130273182A1, “A Herbal Extract for Treating Fatty Liver Disease and a Medication Thereof” (priority 2012, published 2013).

Assay: DPPH free radical elimination test
Type: biochemical
Conditions: 10 mg/ml sample, 0.1 mM DPPH, room temperature 30 minutes, OD 517 nm
Protocol: Trial (A): DPPH Free Radical Elimination Test Referring to TABLE 1, there are six groups (A0) to (A5) to test, wherein the group (A0) comprising 10 mg/ml of ascorbic acid, and other five groups comprising extract of a dry Andrographis paniculata sample, a dry Acanthopanax senticosus sample or a combination of dry Andrographis paniculata sample and dry Acanthopanax senticosus sample in various weight ratios respectively. The group (A1) is a liquid extract obtained by extracting 4 kg of dry Andrographis paniculata sample with 1 liter of 95% ethanol. The group (A2) is a liquid extract obtained by extracting 4 kg of dry Acanthopanax senticosus sample with 1 liter of 95% ethanol. The group (A3) is a liquid extract obtained by extracting 4 kg of dry Andrographis paniculata sample and dry Acanthopanax senticosus sample in a weight ratio of 1:1 with 1 liter of 95% ethanol. The group (A4) is a liquid extract obtained by extracting 4 kg of dry Andrographis paniculata and dry Acanthopanax senticosus in a weight ratio of 1:2 with 1 liter of 95% ethanol. The group (A5) is a liquid extract obtained by extracting 4 kg of dry Andrographis paniculata and dry Acanthopanax senticosus in a weight ratio of 1:3 with 1 liter of 95% ethanol. […] The 6 samples are analyzed in the DPPH free radical elimination ability. […] DPPH elimination rates of each sample are further calculated by using Formula I. [formula]

O=C1O[C@H]([C@@H](O)CO)C(O)=C1O [ascorbic acid]
Percentage of DPPH elimination (%): 96.4 ± 2.7%
